Data: patent US7262183B2, “Substituted 5-membered n-heterocyclic compounds and their uses for treating or preventing neurodegenerative diseases” (Instititute of Pharmacology and Toxicology, priority 2001, dated 2007)

Legend:
[1] = test system: chick embryos dorsal root ganglia; experiment: chick embryos dorsal root ganglion cultures free of serum, neurite process growth; type: cell-based; settings: for Average scoring: 48 h, neurite score 0-3, average of 10 ganglia, control (NGF only) 0.33
Description: The neurotrophic activity of compounds of the present invention can be determined through several biological models in vitro, e.g. the model of chick embryos dorsal root ganglion cultures free of serum in vitro.
In a sterile environment, dorsal root ganglia were dissected from chick embryos of 8 days gestation and inoculated in rat rail collagen coated culture bottles (5 to 6 dorsal root ganglia per bottle, and two bottles per dosage). After 1 hour of attachment in a 37° C., 5% CO2 incubator, NGF (0.15 ng/ml) containing culture medium free of serum (DMEM) and the compound of the present invention were added. The control groups were treated only with the same amount of NGF and culture medium. […] Five to six DRGs were cultured per bottle, and each treatment was performed in duplicate. The results of illustrative compound of example 15 promoting the growth of chick embryos dorsal root ganglia processes were outlined in table 1, wherein the scoring is the average scoring of 10 ganglia.
FIG. 1 indicates the growth of neurites of chick dorsal root ganglia under various dosages of the compound of example 15. A represents that chick embryos dorsal root ganglia with rare processes is caused by the treatment of sole NGF (0.15 ng/mL).

[2] = test system: adult mice sympathetic nerve endings damaged by 6-hydroxy-dopamine (6-OHDA); experiment: adult mice sympathetic nerve endings damaged by 6-OHDA, residual noradrenaline in submaxillary glands; type: in vivo; settings: 10 mg/kg subcutaneous injection; 6-OHDA 8 mg/kg intraperitoneal; measured two weeks after last administration, HPLC-electrochemical detector
Description: The neurotrophic activity of the compounds of the present invention can also be determined in several animal pharmacological models in vivo, such as the model of adult mice sympathetic nerve endings damaged by 6-hydroxy-dopamine (6-OHDA).
Kunming species female mice (□) having a body weight of 18-22 g are randomly divided into the following groups: normal control group, model control group, FK506 (2 mg/kg) group, and the group of compound of the present invention (10 mg/kg) (10 mice per group). The mice are administrated with 6-OHDA (8 mg/kg) by intraperitoneal injection before 4 hours and after 4 continuous days of subcutaneous injection of the compound, while the control groups are administrated with the equivalent quantity of carrier by subcutaneous injection. After two weeks of the last administration, the mice are killed by luxation, and the two submaxillary glands of each of the mice are rapidly excised and weighed, placed in a glass grinder, then is homogenated with a homogenating liquid containing internal-standard, and centrifuged at 2000 g for 30 minutes. 20 μL of the obtained supernatant is directly injected in an HPLC-electrochemical detector to measure the content of noradrenaline (NE) in the submaxillary glands of the mice. […]

SMILES | Average scoring ([1]; 1 pM compound + NGF (0.15 ng/mL) in DMEM) | growth of neurites of chick dorsal root ganglia (FIG. 1) ([1]; 1 pM compound + NGF (0.15 ng/mL), FIG. 1 B) | Average scoring ([1]; 10 pM compound + NGF (0.15 ng/mL) in DMEM) | growth of neurites of chick dorsal root ganglia (FIG. 1) ([1]; 10 pM compound + NGF (0.15 ng/mL), FIG. 1 C, compared with 1 pM) | Average scoring ([1]; 100 pM compound + NGF (0.15 ng/mL) in DMEM) | growth of neurites of chick dorsal root ganglia (FIG. 1) ([1]; 100 pM compound + NGF (0.15 ng/mL), FIG. 1 D, compared with A, B and C) | level of residual NE in the submaxillary glands of the mice (FIG. 2) [2]
CC(C)(C)C(=O)C(=O)N1CSC(C)(C)[C@@H]1C(=O)OCCCc1cccnc1 [Example 15, 3-(3-pyridyl)-1-propyl (2S)-5,5-dimethyl-1-(3,3-dimethyl-1,2-dioxobutyl)-2-(4-thiazolidine)carboxylate] | 1.00 | enhances the improving effect of sole NGF (0.15 ng/mL) on the growth of neurites | 1.31 | stronger effect on the growth of neurites | 1.57 | strongest effect | raise the residual NE level
CC(C)(C)C(=O)C(=O)N1CSC(C)(C)[C@@H]1C(=O)OCCCc1ccccc1 [Example 17, 3-phenyl-1-propyl (2S)-5,5-dimethyl-1-(3,3-dimethyl-1,2-dioxobutyl)-2-(4-thiazolidine)carboxylate] |  |  |  |  |  |  | raise the residual NE level
